Results from patent US10471139B2, “Toll-like receptor agonists” (The University of Kansas, priority 2013, dated 2019).
Read-outs that look alike come from different tables or passages of the source.

Key:
Assay type in all cases: cell-based
human TLR7 = target: T1, human TLR7 (Homo sapiens, UniProt Q9NYK1); assay: Human TLR7 reporter gene assay (NF-κB induction), HEK-Blue-7 cells
T1 construct: expressed in transfected cells; host or cells: HEK293 (HEK-Blue-7)
T1 sequence (Q9NYK1 27-1049): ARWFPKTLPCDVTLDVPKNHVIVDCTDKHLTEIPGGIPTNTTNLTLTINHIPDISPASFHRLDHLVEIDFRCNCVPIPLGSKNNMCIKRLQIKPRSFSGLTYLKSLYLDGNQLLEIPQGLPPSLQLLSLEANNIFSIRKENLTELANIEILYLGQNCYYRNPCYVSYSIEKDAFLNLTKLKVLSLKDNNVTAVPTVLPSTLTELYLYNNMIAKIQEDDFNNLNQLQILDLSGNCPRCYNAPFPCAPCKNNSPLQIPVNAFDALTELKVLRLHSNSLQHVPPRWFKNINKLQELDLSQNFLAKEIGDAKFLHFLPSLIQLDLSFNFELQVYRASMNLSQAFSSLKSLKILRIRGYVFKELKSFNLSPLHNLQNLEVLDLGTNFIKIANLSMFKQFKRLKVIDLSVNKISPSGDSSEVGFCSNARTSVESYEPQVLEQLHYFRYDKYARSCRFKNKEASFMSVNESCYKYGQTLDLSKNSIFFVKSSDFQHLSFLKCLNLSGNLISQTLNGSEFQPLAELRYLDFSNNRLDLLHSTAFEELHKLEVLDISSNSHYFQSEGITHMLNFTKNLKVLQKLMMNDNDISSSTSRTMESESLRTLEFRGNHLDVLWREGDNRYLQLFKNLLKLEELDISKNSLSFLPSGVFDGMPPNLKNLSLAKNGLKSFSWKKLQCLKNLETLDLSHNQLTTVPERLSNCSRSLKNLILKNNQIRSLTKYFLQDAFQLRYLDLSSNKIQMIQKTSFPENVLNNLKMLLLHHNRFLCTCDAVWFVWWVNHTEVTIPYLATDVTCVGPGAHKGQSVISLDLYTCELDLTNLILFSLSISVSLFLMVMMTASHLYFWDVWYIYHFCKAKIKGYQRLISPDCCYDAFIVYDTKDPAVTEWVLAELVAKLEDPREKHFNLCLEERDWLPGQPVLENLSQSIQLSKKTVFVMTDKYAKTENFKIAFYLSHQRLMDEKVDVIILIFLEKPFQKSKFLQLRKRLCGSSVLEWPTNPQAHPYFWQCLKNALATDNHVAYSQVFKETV
Excerpt: (§1) Human TLR-7/-8 Reporter Gene Assays (NF-κB Induction).
(§2) The induction of NF-κB was quantified using HEK-Blue-7 (hTLR7-specific) and HEK-Blue-8 (hTLR8-specific) cells. HEK293 cells stably co-transfected with human TLR7 or human TLR8, MD2, and secreted alkaline phosphatase (sAP), were maintained in HEK-Blue™ Selection medium containing zeocin and normocin. Stable expression of secreted alkaline phosphatase (sAP) under control of NF-κB/AP-1 promoters is inducible by appropriate TLR agonists, and extracellular sAP in the supernatant is proportional to NF-κB induction.
(§3) HEK293 cells stably co-transfected with the appropriate hTLR (or NOD) and secreted alkaline phosphatase (sAP) were maintained in HEK-Blue™ Selection medium. Stable expression of secreted alkaline phosphatase (sAP) under control of NF-κB/AP-1 promoters is inducible by appropriate TLR/NOD agonists, and extracellular sAP in the supernatant is proportional to NF-κB induction.

human PBMCs = assay: IFN-α induction in human PBMCs (ELISA); details: PBMC
Description: Fresh human peripheral blood mononuclear cells (hPBMC) were isolated from human blood obtained by venipuncture with informed consent and as per institutional guidelines on Ficoll-Hypaque gradients as described elsewhere. Aliquots of PBMCs (10^5 cells in 100 μL/well) were stimulated for 12 h with graded concentrations of test compounds. Supernatants were isolated by centrifugation, and were assayed in triplicates using either high-sensitivity multi-subtype IFN-α ELISA kits (PBL Interferon Source, Piscataway, N.J. and R&D Systems, Inc., Minneapolis, Minn.), or analyte-specific multiplexed cytokine/chemokine bead array assays as reported by us previously.

human TLR8 = target: T2, human TLR8 (Homo sapiens, UniProt Q9NR97); assay: Human TLR8 reporter gene assay (NF-κB induction), HEK-Blue-8 cells; details: TLR7 series
T2 construct: expressed in transfected cells; host or cells: HEK293 (HEK-Blue-8)
T2 sequence (Q9NR97 27-1041): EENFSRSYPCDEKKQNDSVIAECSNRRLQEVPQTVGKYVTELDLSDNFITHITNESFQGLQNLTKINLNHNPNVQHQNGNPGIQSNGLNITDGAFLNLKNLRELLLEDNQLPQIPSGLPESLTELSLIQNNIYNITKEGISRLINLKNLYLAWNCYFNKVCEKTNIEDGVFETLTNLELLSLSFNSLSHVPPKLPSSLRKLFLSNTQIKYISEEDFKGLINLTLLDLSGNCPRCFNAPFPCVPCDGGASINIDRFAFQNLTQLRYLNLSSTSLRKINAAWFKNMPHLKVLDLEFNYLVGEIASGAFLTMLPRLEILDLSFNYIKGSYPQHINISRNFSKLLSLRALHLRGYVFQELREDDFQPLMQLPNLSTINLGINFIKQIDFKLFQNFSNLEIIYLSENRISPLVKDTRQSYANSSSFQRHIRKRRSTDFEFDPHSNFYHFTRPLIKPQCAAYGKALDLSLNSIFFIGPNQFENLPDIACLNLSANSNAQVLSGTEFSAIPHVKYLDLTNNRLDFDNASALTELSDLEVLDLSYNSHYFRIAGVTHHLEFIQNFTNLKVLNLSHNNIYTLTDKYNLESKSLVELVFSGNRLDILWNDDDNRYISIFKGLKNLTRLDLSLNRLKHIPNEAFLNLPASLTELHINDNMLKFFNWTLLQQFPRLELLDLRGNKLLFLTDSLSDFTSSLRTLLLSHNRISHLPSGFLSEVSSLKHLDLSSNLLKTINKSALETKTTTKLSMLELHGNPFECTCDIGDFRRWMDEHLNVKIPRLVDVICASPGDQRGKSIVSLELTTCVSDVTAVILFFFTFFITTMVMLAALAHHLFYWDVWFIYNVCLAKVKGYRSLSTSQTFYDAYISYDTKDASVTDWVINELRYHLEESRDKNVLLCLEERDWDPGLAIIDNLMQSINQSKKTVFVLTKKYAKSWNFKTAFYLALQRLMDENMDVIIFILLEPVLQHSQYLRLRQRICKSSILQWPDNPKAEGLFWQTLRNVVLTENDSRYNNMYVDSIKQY
Excerpt: as §1, §2, §3

[1] = human TLR7-specific reporter gene assay, Inactive = no activity up to 500 μg/mL, read-out: hTLR7-agonistic Activity (EC50)
[2] = human TLR7-specific reporter gene assay, Inactive = no activity up to 500 μg/mL
[3] = primary screen, read-out: TLR7-specific agonistic activity EC50

SMILES | EC50 (human TLR7; [1]) [nM] | hTLR7-agonistic Activity (EC50) (human TLR7; [2]) | further results
CCCCc1nc2c(N)nc(NCc3ccco3)cc2n1Cc1ccccc1 [Compound 19k, 1-Benzyl-2-butyl-N^6-(furan-2-ylmethyl)-1H-imidazo[4,5-c]pyridine-4,6-diamine] | 75 |  | TLR7-agonistic potency relative to compound 5 (human TLR7; fold over compound 5): approximately twenty-fold; EC50 (human PBMCs): 700 nM
CCCCc1nc2c(N)nc(NCc3cccc(CN)c3)cc2n1Cc1ccccc1 [Compound 19q, N^6-(3-(aminomethyl)benzyl)-1-benzyl-2-butyl-1H-imidazo[4,5-c]pyridine-4,6-diamine] |  |  | EC50 (human TLR7; [3]): 370 nM
CCCCc1nc2c(N)nc(NCc3cccc(CNc4cc5c(nc(CCCC)n5Cc5ccccc5)c(N)n4)c3)cc2n1Cc1ccccc1 [Compound 19s, N^6,N^6′-(1,3-phenylenebis(methylene))bis(1-benzyl-2-butyl-1H-imidazo[4,5-c]pyridine-4,6-diamine)] |  | Inactive | 
CCCCc1nc2c(N)nc(CCc3ccccc3)cc2n1Cc1ccccc1 [Compound 23j, 1-Benzyl-2-butyl-6-phenethyl-1H-imidazo[4,5-c]pyridin-4-amine] | 570 |  | TLR7-specific agonistic activity EC50 (human TLR7; primary screen): restored
CCCCc1nc2c(N)nc(NCc3cccc(OC)c3)cc2n1Cc1ccccc1 [Compound 19h, 1-Benzyl-2-butyl-N^6-(3-methoxybenzyl)-1H-imidazo[4,5-c]pyridine-4,6-diamine] | 610 |  | 
CCCCc1nc2c(N)nc(-c3cccnc3)cc2n1Cc1ccccc1 [Compound 23d, 1-Benzyl-2-butyl-6-(pyridin-3-yl)-1H-imidazo[4,5-c]pyridin-4-amine] |  | Inactive | 
CCCCc1nc2c(N)nc(-c3ccsc3)cc2n1Cc1ccccc1 [Compound 23f, 1-Benzyl-2-butyl-6-(thiophen-3-yl)-1H-imidazo[4,5-c]pyridin-4-amine] |  | Inactive | 
CCCCc1nc2c(N)nc(Cc3ccc(OC(F)(F)F)cc3)cc2n1Cc1ccccc1 [Compound 23i, 1-Benzyl-2-butyl-6-(4-(trifluoromethoxy)benzyl)-1H-imidazo[4,5-c]pyridin-4-amine] |  | Inactive | 
CCCCc1nc2c(N)nc3ccccc3c2n1Cc1ccccc1 [1-benzyl-2-butyl-1H-imidazo[4,5-c]quinolin-4-amine, reference compound] |  |  | EC50 (human TLR7; [3]): 60 nM
CCCCc1nc2c(N)nc(NCc3ccc(CNc4cc5c(nc(CCCC)n5Cc5ccccc5)c(N)n4)cc3)cc2n1Cc1ccccc1 [Compound 19r, N^6,N^6′-(1,4-phenylenebis(methylene))bis(1-benzyl-2-butyl-1H-imidazo[4,5-c]pyridine-4,6-diamine)] | 1080 |  | 
CCCCc1nc2c(N)nc(NCc3cccc4ccccc34)cc2n1Cc1ccccc1 [Compound 19n, 1-Benzyl-2-butyl-N^6-(naphthalen-1-ylmethyl)-1H-imidazo[4,5-c]pyridine-4,6-diamine] |  | Inactive | TLR7-specific agonistic activity EC50 (human TLR7; primary screen): quiescent
CCCCc1nc2c(N)nccc2n1Cc1ccccc1 [Compound 5, 1-Benzyl-2-butyl-1H-imidazo[4,5-c]pyridin-4-amine] |  |  | EC50 (human TLR7; [3]): 1570 nM; TLR8 activity (human TLR8): negligible
CCCCNc1cc2c(nc(CCCC)n2Cc2ccccc2)c(N)n1 [Compound 19b, 1-Benzyl-N^6,2-dibutyl-1H-imidazo[4,5-c]pyridine-4,6-diamine] | 340 |  | 
CCCCc1nc2c(NC(=O)CCC)nccc2n1Cc1ccccc1 [Compound 6b, N-(1-Benzyl-2-butyl-1H-imidazo[4,5-c]pyridin-4-yl) butyramide] |  | Inactive | TLR7-specific agonistic activity EC50 (human TLR7; primary screen): complete abrogation of activity
CCCCc1nc2c(N)nc(-c3ccoc3)cc2n1Cc1ccccc1 [Compound 23e, 1-Benzyl-2-butyl-6-(furan-3-yl)-1H-imidazo[4,5-c]pyridin-4-amine] |  | Inactive | 

Continued, in another order:

EC50 (human TLR7; [1]) [nM] | hTLR7-agonistic Activity (EC50) (human TLR7; [2]) | SMILES | further results
760 |  | CCCCCCCNc1cc2c(nc(CCCC)n2Cc2ccccc2)c(N)n1 [Compound 19c, 1-Benzyl-2-butyl-N^6-heptyl-1H-imidazo[4,5-c]pyridine-4,6-diamine] | 
280 |  | CCCCc1cc2c(nc(CCCC)n2Cc2ccccc2)c(N)n1 [Compound 23a, 1-Benzyl-2,6-dibutyl-1H-imidazo[4,5-c]pyridin-4-amine] | 
 | Inactive^a | CCCCc1nc2c(NC(C)=O)nccc2n1Cc1ccccc1 [Compound 6a, N-(1-Benzyl-2-butyl-1H-imidazo[4,5-c]pyridin-4-yl)acetamide] | TLR7-specific agonistic activity EC50 (human TLR7; primary screen): complete abrogation of activity
1250 |  | CCCCc1nc2c(N)nc(N)cc2n1Cc1ccccc1 [Compound 19a, 1-Benzyl-2-butyl-1H-imidazo[4,5-c]pyridine-4,6-diamine] | 
 | Inactive | CCCCNc1nccc2c1nc(CCCC)n2Cc1ccccc1 [Compound 11a, 1-Benzyl-N,2-dibutyl-1H-imidazo[4,5-c]pyridin-4-amine] | 
1800 |  | CCCCc1nc2c(N)nc(Cc3ccc(C)cc3)cc2n1Cc1ccccc1 [Compound 23h, 1-Benzyl-2-butyl-6-(4-methylbenzyl)-1H-imidazo[4,5-c]pyridin-4-amine] | 
 | Inactive | CCCCc1nc2c(N)nc(Cl)cc2n1Cc1ccccc1 [Compound 17, 1-Benzyl-2-butyl-6-chloro-1H-imidazo[4,5-c]pyridin-4-amine] | TLR7-specific agonistic activity EC50 (human TLR7; primary screen): inactive
 | Inactive | CCCCc1nc2c(NCc3ccccc3)nccc2n1Cc1ccccc1 [Compound 11b, N,1-Dibenzyl-2-butyl-1H-imidazo[4,5-c]pyridin-4-amine] | 
 | Inactive | CCCCc1nc2c(N)nc(-c3ccccc3)cc2n1Cc1ccccc1 [Compound 23b, 1-Benzyl-2-butyl-6-phenyl-1H-imidazo[4,5-c]pyridin-4-amine] | 
1720 |  | CCCCc1nc2c(N)nc(Nc3ccccc3)cc2n1Cc1ccccc1 [Compound 19e, 1-Benzyl-2-butyl-N^6-phenyl-1H-imidazo[4,5-c]pyridine-4,6-diamine] | 
640 |  | CCCCc1nc2c(N)nc(NCc3ccc(Cl)cc3)cc2n1Cc1ccccc1 [Compound 19j, 1-Benzyl-2-butyl-N^6-(4-chlorobenzyl)-1H-imidazo[4,5-c]pyridine-4,6-diamine] | 
 | Inactive | CCCCc1nc2c(N)nc(-c3ccc(C(N)=O)cc3)cc2n1Cc1ccccc1 [Compound 23c, 4-(4-Amino-1-benzyl-2-butyl-1H-imidazo[4,5-c]pyridin-6-yl)benzamide] | 
